Source: patent US9234242B2, “Methods for treating depression using NCAM peptide mimetics” (THE BOARD OF THE TRUSTEES OF THE LELAND STANFORD JUNIOR …, priority 2005, dated 2016)

Experiments:
Rodents [1] = test: Forced swim test (FST) after microinjection; type: in vivo, rats; details: microinjection (intracerebroventricular), versus controls
From the text: (§1) In another embodiment, the present invention provides methods for altering the behavioral profiles of rats by injecting the rats with FGF2, an NCAM peptide mimetic, and a peptide inhibitor of FGF receptors. Both FGF2 and the NCAM peptide mimetic have antidepressant-like effects in the forced swim test when injected intracerebroventricularly. […] In one embodiment of the invention, ligands that activate FGF receptors are used for their antidepressant effects in the therapeutic treatment of individuals with MDD.
(§2) This is indicative of less depression-like behavior in FGF2 animals.
(§3) Again, this is an index of less depression-like behavior. This is also in the same direction as the FGF2 data, consistent with the fact that both FGF2 and NCAM interact with the FGF receptor.
(§4) These observations are nevertheless consistent with the conclusions drawn from the microinjection studies above.

Rodents [2] = test: Elevated plus maze (EPM) after microinjection; type: in vivo, rats; details: microinjection (intracerebroventricular), versus controls
From the text: as §1, §2, §3, §4

Sprague-Dawley rats = test: Morris water maze learning and memory test in adults after early postnatal injection; type: in vivo; details: 20 ng/g s.c. the day after birth, tested as adults; vehicle-injected rats 25 seconds
Method: (§5) Sprague-Dawley rats were injected with either vehicle or FGF2 (20 ng/g, s.c.) the day after birth and sacrificed after Morris water maze testing as adults. We assessed changes in gene expression using both a candidate approach and a gene discovery approach with laser-capture microdissection of the dentate gyrus followed by microarray analyses.

[3] = test system: genes associated with neural plasticity; test: Long-term changes in hippocampal gene expression (histochemical and RNA expression assays); type: in vivo; details: adult rats, 20 ng/g s.c. the day after birth
Method: as §5

rats = test: Elevated plus-maze (EPM) and light-dark (LD) anxiety test after chronic administration; type: in vivo; details: 5 ng/g i.p. every 48 hours for 3 weeks
Method: Anxiety disorders have a high comorbidity with other neuropsychiatric disorders including Major Depression (MD). […] Rats were placed into “high anxiety” (LR) or “low anxiety” (HR) groups based on their behavior in a variety of motor and behavioral tests. Both groups of animals were administered either FGF2 (5 ng/g) or vehicle by intraperitoneal injection every 48 hours for 3 weeks. One day after the last FGF2 injection, all animals were tested in the elevated plus-maze (EPM) and light-dark (LD) anxiety test.
The apparatus for the EPM test is constructed of black Plexiglass with […] (70 cm from the floor, 45 cm long, and 12 cm wide). Illumination is provided by a 40-watt desk lamp facing a wall and placed behind one of the closed arms. The scientists put the animal inside the system. Animals that are less anxious spend more time in the open arms whereas animals that are more anxious spend less time in the open arms.
The LD test is conducted in a 30×60×30-cm Plexiglas shuttle box with a translucent cover. Each box is divided into two equal-sized compartments by a wall with a 12 cm-wide open door. One compartment is painted white and brightly illuminated, and the other is painted black with very dim light. The time each rat spends in each compartment is monitored by rows of five photocells located 2.5 cm above the grid floor of each compartment. […]

[4] = test system: FGFR2 and FGFR3 exon IIIc:IIIb splice variant ratio; test: Real time RT-PCR of exon IIIc:IIIb splice variant ratio in frontal cortex, chronic unpredictable stress; type: in vivo, rats; details: 5 ng/g i.p. every 48 hours for three weeks
Method: Half of the rats (n=12) were administered vehicle (0.1M PBS with 100 μg/mL bovine serum albumin), and the other half (n=12) were administered human recombinant FGF2 dissolved in vehicle in 5 ng/g dosages (Sigma, St. Louis, Mo.) every 48 hours for three weeks. All treatments were injected intra-peritoneally. During the same three week period as the FGF2 treatments, the vehicle group was either handled (n=6) or exposed to CUS (n=6). Likewise, the FGF2 injected group was either handled (n=6) or exposed to CUS (n=6). […]
Gross dissections were performed on the frontal cortex of all brains. […] Using the Bioanalyzer's concentration readings, the samples were normalized to 25 ng/μL of total RNA per subject and stored at −80° C.
cDNA was synthesized using the iScript cDNA Synthesis Kit (Bio-Rad, Hercules, Calif.). […] The double-stranded cDNA solutions were then analyzed for quality and concentration using Invitrogen's Quant-iT PicoGreen dsDNA kit. […] The fluorescently labeled samples were analyzed with a 1420 Victor^2 Multilabel Counter (EG&G Wallac, Wellesley, Mass.) using the basic Fluorescein protocol. […]
Sequences for rat FGFR2 and FGFR3 exons were obtained from NCBI's Entrez Gene database (www.ncbi.nlm.nih.gov) and the Ensembl-Rat gene database (www.ensembl.org). […] FGFR2 and FGFR3 exon sequences were analyzed for secondary structure using the Mfold nucleic acid folding web server. […]

| Substance | immobility in the FST (Rodents [1]) | swimming in the FST (Rodents [1]) | time in the closed arms of the EPM (Rodents [2]) | time in the open arms of the EPM (Rodents [2]) | time on average to find a hidden platform in Morris Water maze test (Sprague-Dawley rats) [s] | expression of CCK [3] | expression of GAP-43 [3] | expression of NCAM [3] | expression of Rgs4 [3] | expression of SST [3] | expression of Vgf [3] | expression of trkB [3] | anxiety-reducing effects in innately more anxious (LR) rats (rats; LR versus HR rats) | anxiety versus animals who receive vehicle (rats; time in the light compartment (FIG. 9)) | effect on the magnitude of ratio changes caused by stress [4] | effect on the IIIc:IIIb ratio in the NS or S group ([4]; P>0.1) | climbing in the FST (Rodents [1]) | time in the center quadrant of the EPM (Rodents [2]) |
| --- | --- | --- | --- | --- | --- | --- | --- | --- | --- | --- | --- | --- | --- | --- | --- | --- | --- | --- |
| FGF2: FGF receptor ligand; human recombinant FGF2 (Sigma) in Example 6 | less immobility | more swimming | significantly more time | less time | 20 | increased | increased | decreased | increased | increased | increased | increased | clearly more pronounced | less anxious | nor did it significantly affect | did not alter the IIIc:IIIb ratio significantly |  |  |
| FGF system peptide inhibitor: FGF system peptide inhibitor, amino acid sequence=HFKDPKRLY; SEQ ID NO:35 (FGF system peptide inhibitor) [reference compound] | more immobility | less swimming | less time | equal time |  |  |  |  |  |  |  |  |  |  |  |  | significantly less climbing | significantly more time |
| NCAM: NCAM (FGL peptide), amino acid sequence=EVYVVAENQQGKSKA (SEQ ID NO:34); interacts with the FGF receptor (NCAM (FGL peptide)) | less immobility |  | more time (although not significantly more time) | less time |  |  |  |  |  |  |  |  |  |  |  |  |  | significantly less time |
